# In article PMC3834177 (Cancer Chemotherapy and Pharmacology, 2013):
# Read-outs that look alike come from different tables or passages of the source. Marks after values point to notes of the source that are not given here.
# Assays:
# [1] = test system: mutant FLT3; conditions: in vitro; read-out: half-maximal inhibitory concentration (IC50), mutant FLT3; cited from earlier work
# [2] = Midostaurin PK when administered with rifampicin; conditions: for AUC(0-t) / Cmax / half-life / Tmax: human, plasma, oral, n = 20; for AUC(0-t): AUC0–last; for AUC(0-t) / Cmax: adjusted geometric mean; for Cmax: C max; for half-life: t 1/2, adjusted geometric mean; for Tmax: t max, median
# Procedure: These endogenous molecules served as exploratory biomarkers for CYP3A4 activity in vivo [21, 22].
# A point estimate and the corresponding 90 % CI for the treatment effect (test vs reference) were calculated. These were anti-logged to obtain the GMR and respective 90 % CI. […] The median difference was estimated with the Hodges–Lehmann estimator and its respective exact two-sided 90 % CI. All formal comparative statistical analyses were performed using SAS software.
# (§1) The concentration of ketoconazole in plasma was assessed using a validated LC–MS/MS assay with an LLOQ of 50.0 ng/mL (WuXi Pharmatech Co, Ltd, China). The concentration of rifampicin in plasma was measured using a validated LC–MS/MS assay with an LLOQ of 5.0 ng/mL (SGS, Cephac Europe, SAS). Plasma concentrations of midazolam and its metabolite 1′-hydroxymidazolam, which is generated by CYP3A4 and CYP3A5 in humans, were measured using a validated LC–MS/MS assay with an LLOQ of ≈0.100 ng/mL (SGS, Cephac Europe, SAS). The plasma concentration of 4β-hydroxycholesterol was measured using a validated LC–MS/MS assay with an LLOQ of 3.0 ng/mL (SGS, Cephac Europe, SAS). The concentrations of 6β-hydroxycortisol and cortisol in urine were determined using validated LC–MS/MS assays with an LLOQ of 10.0 ng/mL for 6β-hydroxycortisol and 1.0 ng/mL for cortisol. The ratio of 6β-hydroxycortisol to cortisol was subsequently calculated (SGS, Cephac Europe, SAS). See Supplementary Table 2 for detailed bioanalytical methods for all 3 studies.
# [3] = cited from earlier work
# [4] = test system: human serum protein α1-acid glycoprotein (AAG); parameters: method as in PMID 11230495; conditions: cited from earlier work
# [5] = Midostaurin PK when administered with ketoconazole; conditions: for Cmax / Tmax: human, plasma, oral, n = 18; for Cmax: C max, adjusted geometric mean; for Tmax: t max, median
# Procedure: According to the US Food and Drug Administration, ketoconazole 400 mg once daily is the recommended dose to evaluate DDIs involving CYP3A4 inhibition. [drawing 1]
# Adverse events (AEs) were recorded during the study and up to 1 month (28 days) after the end of study. Volunteers remained at the clinic until AEs were common toxicity criteria (CTC) grade ≤1.
# A point estimate and the corresponding 90 % CI for the treatment effect were calculated for the test treatment compared with the reference. These were anti-logged to obtain the point estimate and the 90 % CI for the geometric mean ratio (GMR) on the untransformed scale. […] All ANOVAs were performed using SAS software (SAS Institute Inc., Cary, NC, USA).
# as §1
# [6] = test system: CYP3A4/5; conditions: in vitro; read-out: IC50, CYP3A4/5 activity (midazolam 1′-hydroxylation); cited from earlier work
# [7] = Midazolam PK when administered with midostaurin; conditions: for change in AUCinf: day 3 (co-administration of midostaurin) vs day 1; for AUC0–inf, adjusted geometric mean / AUC0–last, adjusted geometric mean / C max, adjusted geometric mean / t max, median / AUC(0-inf) / AUC(0-t) / Cmax: n = 18; for AUC(0-inf): AUC0–inf; for AUC(0-inf) / AUC(0-t) / Cmax: adjusted geometric mean; for AUC(0-t): AUC0–last; for Cmax: C max
# Source text: (§2) Both inhibition and induction of midazolam clearance were investigated.
# Similarly, blood and urine samples were taken on days 1, 3, 6, 7, 8, and 9 to measure the levels of 4β-hydroxycholesterol in plasma and the 6β-hydroxycortisol/cortisol ratio in urine, markers of CYP3A4 activity.
# The PK parameters of midazolam and its metabolites (C max, t max, AUC0–last, AUCinf, and t 1/2) were derived using a noncompartmental method with the aid of WinNonLin 5.2. […] Following log transformation, the primary PK parameters were analyzed using a linear, mixed-effects model using the term of treatment as a fixed factor (reference, test 1, test 2) and subject as a random factor. A point estimate and the corresponding 90 % CI for the difference in test 1 versus reference and the difference in test 2 versus reference were derived from the respective contrasts of the model estimates and anti-logged to obtain the GMR and respective 90 % CI.
# as §1
# [8] = Safety and tolerability, midazolam study
# Source text: as §2
# [9] = Placebo + midostaurin arm, rifampicin study
# [10] = Placebo + midostaurin arm, ketoconazole study
# [11] = day 3 (co-administration of midostaurin) vs midazolam alone day 1
# [12] = day 8 (after repeated doses of midostaurin) vs day 1
# [13] = plasma, Midazolam + midostaurin (day 3)
# [14] = midazolam study: MZ 4 mg (day 1), MZ 4 mg + Mido 100 mg (day 3), Mido 50 mg twice daily (days 4–6)
# [15] = midazolam study: second MZ 4 mg alone (day 8, after Mido)
# [16] = human, plasma, oral, 4 mg, plasma, Midazolam (day 1)
# [17] = human, plasma, oral, 4 mg, plasma, Midazolam (day 8)
# [18] = human, plasma, oral, plasma, Midazolam + midostaurin (day 3)
smiles,measurement,setting,value
CO[C@@H]1[C@H](N(C)C(=O)c2ccccc2)C[C@H]2O[C@]1(C)n1c3ccccc3c3c4c(c5c6ccccc6n2c5c31)C(=O)NC4O (mixture of isomers) [CGP52421],IC50,[1],0.584 µM
same,decrease in exposure (AUClast) in midostaurin + rifampicin arm,[2]; compared with midostaurin alone,2.45 fold
same,AUC(0-t),[2]; [9],14.6 µg·h/mL
same,AUC(0-t),[2]; Rifampicin + midostaurin arm,5.96 µg·h/mL
same,Cmax,[2]; [9],0.196 µg/mL
same,Cmax,[2]; Rifampicin + midostaurin arm,0.128 µg/mL
same,half-life,[2]; [9],175 h
same,half-life,[2]; Rifampicin + midostaurin arm,87.1 h
same,Tmax,[2]; [9],3 h
same,Tmax,[2]; Rifampicin + midostaurin arm,2.51 h
same,median t max prolonged in midostaurin + placebo arm compared with midostaurin + rifampicin arm,[2]; in vivo,1.2 fold
same,apparent elimination half-life (t 1/2),[3],384 to 744 h
same,half-life,[3],> 1 month
same,major pathway for elimination,[3],Fecal excretion
same,bound to AAG,[4],88–98%
same,Cmax,[5]; Ketoconazole + midostaurin arm,0.0709 µg/mL
same,Cmax,[5]; [10],0.145 µg/mL
same,Tmax,[5]; Ketoconazole + midostaurin arm,120 h
same,Tmax,[5]; [10],2 h
same,"t max, Hodges–Lehmann estimate of median difference (90 % distribution-free CI)",[5]; ketoconazole + midostaurin vs placebo + midostaurin,"116.7 (93.9, 117.9) h"
same,IC50,[6],1.5 µM
OCc1ncc2n1-c1ccc(Cl)cc1C(c1ccccc1F)=NC2 [1′-Hydroxymidazolam],change in AUCinf,[7],No change
same,average decrease in C max,[7]; [11],1.2 fold
same,"t max, Hodges–Lehmann estimate of median difference (90 % distribution-free CI)",[7]; day 3/day 1 comparison,0.13 (−0.50 to 1.50)^b h
same,average decrease in AUCinf,[7]; [12],1.3 fold
same,average decrease in C max,[7]; [12],1.3 fold
same,"t max, Hodges–Lehmann estimate of median difference (90 % distribution-free CI)",[7]; day 8/day 1 comparison,0.01 (−0.23 to 0.26)^c h
same,"AUC0–inf, adjusted geometric mean","[7]; plasma, Midazolam (day 1), midazolam 4 mg alone",0.01818 µg·h/mL
same,"AUC0–last, adjusted geometric mean","[7]; plasma, Midazolam (day 1)",0.01591 µg·h/mL
same,"C max, adjusted geometric mean","[7]; plasma, Midazolam (day 1)",0.00583 µg/mL
same,"t max, median","[7]; plasma, Midazolam (day 1)",0.50 h
same,"AUC0–inf, adjusted geometric mean","[7]; plasma, Midazolam (day 8), midazolam 4 mg alone after repeated midostaurin",0.01374 µg·h/mL
same,"AUC0–last, adjusted geometric mean","[7]; plasma, Midazolam (day 8)",0.01257 µg·h/mL
same,"C max, adjusted geometric mean","[7]; plasma, Midazolam (day 8)",0.00437 µg/mL
same,"t max, median","[7]; plasma, Midazolam (day 8)",0.50 h
same,"AUC0–inf, adjusted geometric mean","[7]; plasma, Midazolam + midostaurin (day 3), midazolam 4 mg + midostaurin 100 mg",0.01854 µg·h/mL
same,"AUC0–last, adjusted geometric mean",[7]; [13],0.01587 µg·h/mL
same,"C max, adjusted geometric mean",[7]; [13],0.00476 µg/mL
Cc1ncc2n1-c1ccc(Cl)cc1C(c1ccccc1F)=NC2 [Midazolam],Adverse event: Abdominal distension,[8]; [14],0 n (%)
same,Adverse event: Any preferred term,[8]; [14],3 (15.0) n (%)
same,Adverse event: Back pain,[8]; [14],0 n (%)
same,Adverse event: Chromaturia,[8]; [14],0 n (%)
same,Adverse event: Cough,[8]; [14],0 n (%)
same,Adverse event: Diarrhea,[8]; [14],0 n (%)
same,Adverse event: Discolored feces,[8]; [14],0 n (%)
same,Adverse event: Dizziness,[8]; [14],0 n (%)
same,Adverse event: Dry skin,[8]; [14],0 n (%)
same,Adverse event: Dyspepsia,[8]; [14],0 n (%)
same,Adverse event: Feeling cold,[8]; [14],0 n (%)
same,Adverse event: Feeling hot,[8]; [14],0 n (%)
same,Adverse event: Flatulence,[8]; [14],0 n (%)
same,Adverse event: Headache,[8]; [14],2 (10.0) n (%)
same,Adverse event: Hot flush,[8]; [14],0 n (%)
same,Adverse event: Nasopharyngitis,[8]; [14],0 n (%)
same,Adverse event: Nausea,[8]; [14],0 n (%)
same,Adverse event: Palpitations,[8]; [14],0 n (%)
same,Adverse event: Pharyngolaryngeal pain,[8]; [14],0 n (%)
same,Adverse event: Restlessness,[8]; [14],0 n (%)
same,Adverse event: Rhinitis,[8]; [14],0 n (%)
same,Adverse event: Sleep disorder,[8]; [14],0 n (%)
same,Adverse event: Somnolence,[8]; [14],1 (5.0) n (%)
same,Adverse event: Vomiting,[8]; [14],0 n (%)
same,Adverse event: Abdominal distension,[8]; [15],0 n (%)
same,Adverse event: Any preferred term,[8]; [15],3 (16.7) n (%)
same,Adverse event: Back pain,[8]; [15],0 n (%)
same,Adverse event: Chromaturia,[8]; [15],0 n (%)
same,Adverse event: Cough,[8]; [15],0 n (%)
same,Adverse event: Diarrhea,[8]; [15],0 n (%)
same,Adverse event: Discolored feces,[8]; [15],0 n (%)
same,Adverse event: Dizziness,[8]; [15],0 n (%)
same,Adverse event: Dry skin,[8]; [15],0 n (%)
same,Adverse event: Dyspepsia,[8]; [15],0 n (%)
same,Adverse event: Feeling cold,[8]; [15],0 n (%)
same,Adverse event: Feeling hot,[8]; [15],0 n (%)
same,Adverse event: Flatulence,[8]; [15],0 n (%)
same,Adverse event: Headache,[8]; [15],2 (11.1) n (%)
same,Adverse event: Hot flush,[8]; [15],0 n (%)
same,Adverse event: Nasopharyngitis,[8]; [15],1 (5.6) n (%)
same,Adverse event: Nausea,[8]; [15],0 n (%)
same,Adverse event: Palpitations,[8]; [15],0 n (%)
same,Adverse event: Pharyngolaryngeal pain,[8]; [15],0 n (%)
same,Adverse event: Restlessness,[8]; [15],0 n (%)
same,Adverse event: Rhinitis,[8]; [15],0 n (%)
same,Adverse event: Sleep disorder,[8]; [15],0 n (%)
same,Adverse event: Somnolence,[8]; [15],0 n (%)
same,Adverse event: Vomiting,[8]; [15],0 n (%)
same,change in AUCinf,[7],No change
same,average decrease in C max,[7]; [11],1.2 fold
same,average decrease in AUCinf,[7]; [12],1.1 fold
same,average decrease in C max,[7]; [12],1.1 fold
same,"t max, Hodges–Lehmann estimate of median difference (90 % distribution-free CI)",[7]; day 8/day 1 comparison,0.12 (−0.12 to 0.26)^c h
same,Tmax,"[7]; human, plasma, oral, 4 mg",0.5 h
same,AUC(0-inf),"[7]; human, plasma, oral, 4 mg, plasma, Midazolam (day 1), midazolam 4 mg alone",0.0497 µg·h/mL
same,AUC(0-inf),"[7]; human, plasma, oral, 4 mg, plasma, Midazolam (day 8), midazolam 4 mg alone after repeated midostaurin",0.047 µg·h/mL
same,AUC(0-t),[7]; [16],0.0431 µg·h/mL
same,AUC(0-t),[7]; [17],0.0408 µg·h/mL
same,Cmax,[7]; [16],0.0135 µg/mL
same,Cmax,[7]; [17],0.0123 µg/mL
same,AUC(0-inf),"[7]; human, plasma, oral, plasma, Midazolam + midostaurin (day 3), midazolam 4 mg + midostaurin 100 mg",0.0496 µg·h/mL
same,AUC(0-t),[7]; [18],0.0402 µg·h/mL
same,Cmax,[7]; [18],0.011 µg/mL
same,"t max, median","[7]; plasma, Midazolam (day 8)",0.50 h
